Assay results: US5011833A, “Novel derivatives of 6,11-dihydro-dibenzo(C,F)(1,2,5)-thiadiazepine 5,5-dioxide, salts thereof and appropriate processes for the preparation thereof” (A. Menarini Industrie Farmaceutiche Riunite, priority 1988, dated 1991)
Where two headings read alike, the source gives them in different places.

Columns and labels:
motor activity = details: in vivo
cardio-toxic = details: in vivo
[1] = acute oral toxicity (LD-50); details: mouse, in vivo
duodenal ulcers = assay: effect on duodenal ulcers; details: in vivo
blood pressure = details: in vivo
[2] = test system: hypothermia induced by apomorphine; assay: inhibition of hypothermia induced by apomorphine (apomorphine test); details: Mus musculus, po, 1 h, read-out: Hypothermia inhibition from Apo16: ED-50
anticholinergic effect = details: in vivo
convulsions = details: in vivo
[3] = Swiss male mice, after 14 days, read-out: LD-50

In the case of `CN(C)CC(=O)N1c2ccccc2N(C)S(=O)(=O)c2ccccc21` [Compound 1, 6-Methyl-6,11-dihydro-11-(N,N-dimethylaminoacetyl)dibenzo[c,f][1,2,5]thiadiazepine 5,5-dioxide], the motor activity (motor activity) is reported as “does not alter the motor activity”, the cardio-toxicity (cardio-toxic) is reported as “is not cardio-toxic” and the LD50 at 336 h [1, 3] is reported as 1500 to 2000 mg/kg. The LD50 at 336 h ([1]; mice, read-out: oral LD-50) was 1920 mg/kg, the duodenal ulcers (duodenal ulcers) was “reduces duodenal ulcers” and the blood pressure (blood pressure) was “does not alter the blood pressure”. The ED50 [2] was 4 to 15 mg/kg, the anticholinergic effect (anticholinergic effect) was “induces very weak anticholinergic effects” and the convulsions (convulsions) was “does not induce convulsions”.
Compound `CNCC(=O)N1c2ccccc2N(C)S(=O)(=O)c2ccccc21` [Compound 2] has an LD50 at 336 h [1, 3] of 750 to 1000 mg/kg and an ED50 [2] of 4 to 15 mg/kg.
Work on `CCN(CC)CC(=O)N1c2ccccc2N(C)S(=O)(=O)c2ccccc21` [Compound 3, 6-Methyl-6,11-dihydro-11-(N,N-diethylamino-acetyl)dibenzo[c,f][1,2,5]thiadiazepine 5,5-dioxide] yielded an LD50 at 336 h [1, 3] greater than 2000 mg/kg and an ED50 [2] of 15 to 25 mg/kg.
For `CN(C)CCC(=O)N1c2ccccc2N(C)S(=O)(=O)c2ccccc21.Cl` [Compound 4, 6-Methyl-6,11-dihydro-11-[3-(N,N-dimethylamino)propionyl]dibenzo[c,f][1,2,5]thiadiazepine 5,5-dioxide hydrochloride], the LD50 at 336 h [1, 3] was 500 to 700 mg/kg and the ED50 [2] was 15 to 25 mg/kg.
`CN(C)CC(=O)N1c2ccc(Cl)cc2N(C)S(=O)(=O)c2ccccc21` [Compound 5, 8-chloro-6-methyl-6,11-dihydro-11-(N,N-dimethylamino-acethyl)-dibenzo[c,f][1,2,5]thiadiazepine 5,5-dioxide] gave an LD50 at 336 h [1, 3] of 1000 to 1500 mg/kg and an ED50 [2] of 15 to 25 mg/kg.
Work on `Cc1ccc2c(c1)N(C(=O)CN(C)C)c1ccccc1S(=O)(=O)N2C` [Compound 6, 6,9-dimethyl-6,11-dihydro-11-(N,N-dimethylaminoacetyl)-dibenzo[c,f][1,2,5]thiadiazepine 5,5-dioxide] yielded an LD50 at 336 h [1, 3] of 1500 to 2000 mg/kg and an ED50 [2] of 4 to 15 mg/kg.
For `CN(C)CCCN1c2ccccc2CCc2ccccc21` [imipramine, reference compound], the ED50 [2] was 4 to 15 mg/kg.
For `CN(C)CCCN1c2ccccc2N(C)S(=O)(=O)c2ccccc21` [reference compound], the motor activity (motor activity) was “increases the motor activity”, the LD50 at 336 h ([1]; mice, read-out: oral LD-50) was 655 mg/kg and the blood pressure (blood pressure) was “increases the blood pressure”. The anticholinergic effect (anticholinergic effect) was “possesses anticholinergic effect” and the convulsions (convulsions) was “induces convulsions”.
